Results reported in US20040082588A1, “Methods for treating disorders of calcium homeostasis” (Schering Corporation, priority 2002, published 2004).

Columns and labels:
[1] = system: rat parathyroid glands; assay: Micrographic analysis (light and electron microscopy) of rat parathyroid glands; format: in vivo
From the text: Electron photomicrographs of the right parathyroid gland from two control rats sacrificed on Day 13 (Nos. 26F and 29F), two control rats sacrificed on Day 29 (Nos. 39F and 40F) and two Formula 1-dosed rats sacrificed on Day 29 (Nos. 76F and 77F) were examined for ultrastructural changes. […] A single rounded parathyroid epithelial cell in animal No. 77F appeared apoptotic with condensed chromatin and intact mitochondria and contained numerous vesicles similar to those previously described. The apoptotic cell is consistent with the single cell necrosis observed at the light microscopic level.

[2] = system: Female Rats; assay: One-month exploratory nephrotoxicity study in female rats: urine calcium and phosphorus excretion; format: in vivo, rat; details: for Mean calcium excretion / Mean phosphorus excretion: female rats, 180 mg/kg daily
From the text: (§1) A study was undertaken to assess the potential nephrotoxicity of the compound of Formula 1 in rats. The rats were 6 week old females weighing 120.7 to 173.5 g at dosing initiation.
(§2) The study design is summarized below in Tables 1-3: […]

[3] = system: Female Rats; assay: One-month exploratory nephrotoxicity study in female rats: serum PTH; format: in vivo, rat; details: for Mean serum PTH: female rats, 180 mg/kg daily
From the text: as §1, §2

[4] = system: Female Rats; assay: One-month exploratory nephrotoxicity study in female rats: serum ADH; format: in vivo, rat; details: for Mean serum ADH: female rats, 180 mg/kg daily
From the text: as §1, §2

[5] = system: Female Rats; assay: One-month exploratory nephrotoxicity study in female rats: urine volume and osmolality; format: in vivo, rat; details: for Mean urine osmolality / Mean urine volume: female rats, 180 mg/kg daily
From the text: as §1, §2

[6] = molecular target: Farnesyl Protein Transferase (FPT) (Homo sapiens, UniProt P49356); details: cited from earlier work
[7] = system: Ras-3T3 tumors; details: mice bearing Ras-3T3 tumors with hypercalcemia (MAH); cited from earlier work
[8] = electron photomicrographs, dosed rats
[9] = electron photomicrographs, two dosed rats sacrificed on Day 29
[10] = within 6 days of dosing at 180 mg/kg, rats

NC(=O)N1CCC(CC(=O)N2CCC(C3c4ncc(Br)cc4CCc4cc(Cl)cc(Br)c43)CC2)CC1 (centres unmarked) [Formula 1]
changes indicating chronic stimulation of parathyroid (rough endoplasmic reticulum, Golgi apparatus) [1, 8]: no changes indicating chronic stimulation
exhaustion vacuoles in parathyroid cells [1, 8]: no evidence of exhaustion vacuoles
Ultrastructure of parathyroid chief cells: cell borders [1, 9]: less conspicuous cell borders with fewer, less distinctive cytoplasmic projections
Ultrastructure of parathyroid chief cells: cytoplasm content [1, 9]: numerous, generally membrane-bound, vesicles
number of myeloid bodies and fat globules in parathyroid cells [1, 9]: minimally increased
Microscopic evaluation of the parathyroid glands ([1]; rats dosed with 180 mg/kg): cytoplasmic vacuolation
Mean calcium excretion ([2]; Day 2, urine): 5.65 mg/kg/24 hours
Mean phosphorus excretion ([2]; Day 2, urine): 55.9 mg/kg/24 hours
Mean calcium excretion ([2]; Day 6, urine): 33 mg/kg/24 hours
Mean phosphorus excretion ([2]; Day 6, urine): 13.5 mg/kg/24 hours
Mean calcium excretion ([2]; Day 13, urine): 20.7 mg/kg/24 hours
Mean phosphorus excretion ([2]; Day 13, urine): 12.1 mg/kg/24 hours
Mean calcium excretion ([2]; Day 29, urine): 19.2 mg/kg/24 hours
Mean phosphorus excretion ([2]; Day 29, urine): 7.3 mg/kg/24 hours
calcium excretion in the urine (change vs control) [2, 10]: increased
phosphorus excretion (change vs control) [2, 10]: decreased
Mean serum PTH ([3]; Day 2): 60 ng/mL
Mean serum PTH ([3]; Day 6): 51 ng/mL
Mean serum PTH ([3]; Day 13): 68 ng/mL
Mean serum PTH ([3]; Day 29): 44 ng/mL
serum PTH (change vs control) ([3]; rats dosed at 180 mg/kg): decrease
rats evaluated with lower PTH serum concentrations than the control rats ([3]; within 28 days, 180 mg/kg): 5 out of 5
Mean serum ADH ([4]; Day 2): 350 pg/mL
Mean serum ADH ([4]; Day 6): 513 pg/mL
Mean serum ADH ([4]; Day 13): 547 pg/mL
Mean serum ADH ([4]; Day 29, water consumption had increased at this timepoint): 616^1 pg/ml
antidiuretic hormone (ADH) concentrations (change vs control) ([4]; rats dosed at 180 mg/kg): increases
Mean urine osmolality ([5]; Day 2): 646 mOsm/kg
Mean urine volume ([5]; Day 2): 124 ml/kg/24 hours
Mean urine osmolality ([5]; Day 6): 646 mOsm/kg
Mean urine volume ([5]; Day 6): 195 ml/kg/24 hours
Mean urine osmolality ([5]; Day 13): 655 mOsm/kg
Mean urine volume ([5]; Day 13): 177 ml/kg/24 hours
Mean urine osmolality ([5]; Day 29): 606 mOsm/kg
Mean urine volume ([5]; Day 29): 166 ml/kg/24 hours
condition suggested by urine osmolality, urine volume and ADH changes ([5]; rats dosed at 180 mg/kg): nephrogenic diabetes insipidus
urine osmolality (change vs control) ([5]; rats dosed at 180 mg/kg): Decreases
urine volume (change vs control) ([5]; rats dosed at 180 mg/kg): increases

NC(=O)N1CCC(CC(=O)N2CCC([C@H]3c4ncc(Br)cc4CCc4cc(Cl)cc(Br)c43)CC2)CC1 [SCH66336]
FPT mediated farnesylation of the Ras protein [6]: inhibit

COC(=O)[C@H](CCSC)NC(=O)[C@H](/C=C\[C@@H](/C=C/[C@@H](N)CS)C(C)C)Cc1ccccc1 [Formula B-1086]
serum PTHRP levels [7]: reduction
serum calcium [7]: normalization
